Experiment [1] addresses T1, thrombin (Homo sapiens, UniProt P00734).
T1 construct: two polypeptide chains of 36 (light chain) and 259 amino acid residues (heavy chain); purchased Haematologic Technologies HCT-0020
Nature of the experiment: Substrate KM for protease screen, thrombin. The class given is biochemical. The method, then:
Crude macrocyclic libraries (4 mM DMSO stocks in 384-well LDV plates were transferred into 1536-well microtiter OptiPlates via ADE. Applied buffered solutions were prepared by filtration through PTFE syringe filters (0.22 μm) and assays were initiated by addition of protease (4.41 μl/well) in appropriate buffer (see list below) supplemented with bovine serum albumin (BSA; 0.1% w/v) and dispensed using a CERTUS automated liquid handler. Plates were incubated for 10 min at ambient temperature before fluorogenic substrate in appropriate buffer (4.5 μl) was added using a CERTUS automated liquid handler. Plates were centrifugated (800 g, 2 min) and fluorescence intensity was measured using a PHERAstar plate reader (excitation 384 nm, emission 440 nm) in time increments of 150 s over 15 min. Slopes of fluorescence increase (m) were calculated with Microsoft Excel (vers. 16.56). Negative controls were prepared without macrocycle. An average of 12 negative controls was used to calculate residual activities using Equation I below: […]
where [S]0 is the initial substrate concentration and KM is the Michaelis-Menten constant^12 for the enzyme and substrate.

In experiment [2] the target is T2, MDM2 (Homo sapiens, UniProt Q00987). In words: Determining Kds of MDM2 binders by SPR. The class given is binding. As to conditions: unlabeled macrocycles, single cycle kinetics. The method, then:
FIG. 30. Binding of macrocycles to MDM2 measured by SPR. a, Single-cycle SPR sensorgrams for fluorescein-labeled macrocycles, positive control nutlin-3a (not fluorescein labeled), and negative controls (thrombin inhibitors; not fluorescein labeled). RU, response unit. b, Single-cycle SPR sensorgrams for macrocycles M6, M7, M8 and M10 (not fluorescein-labeled), performed in triplicate.
Experiments were performed using a GE Healthcare Biacore 8K instrument. MDM2 (10 μg/mL) was dissolved in 10 mM MES buffer (pH 6.0) and immobilized on three channels of a CM5 series S chip (Cytiva, 29104988) using EDC/NHS amine coupling conditions in running buffer (10 mM PBS pH 7.4, 150 mM NaCl, 3 mM KCI, and 0.005% v/v Tween-20). Typical immobilization level was 6,000 to 7,000 resonance units (RUs). The reference cell was treated the same way without MDM2. For the measurement of binding kinetics and dissociation constants, five serial dilutions (3-fold) of macrocycles plus a DMSO blank were prepared in running buffer (10 mM PBS PH 7.4, 150 mM NaCl, 3 mM KCl, and 0.005% v/v Tween-20, and 0.5% v/v DMSO) and analyzed in single cycle kinetics mode with contact and dissociation times of 120 seconds and 60 seconds, respectively.

Experiment [3] deals with T2, MDM2. In words: MDM2 fluorescence polarization competition assay (displacement of FP53 peptide probe). The class given is binding. The following applies: purified macrocycles, 1.2 μM MDM2; read-out: IC50 displacement of fluorescent peptide probe from MDM2. The method, then:
The library was screened by dispensing to the reactions in the 384-mictrowell plates the target protein MDM2 and a reporter peptide to measure binding of the macrocycles.
One fluorescence anisotropy reading was taken with a Tecan Infinite F200 Pro fluorescence plate reader (excitation at 485 nm, emission at 535 nm) at 25° C.The percentage of probe displacement was calculated using to the following formula,
Volumes of 5 μL of purified macrocycles (20 mM in DMSO) were serial diluted two-fold in 100% DMSO in a low dead-volume ECHO source plate. Using acoustic droplet transfer, 150 nl of each dilution was transferred to a 384 well low volume polystyrene plate (Nunc, 264705). […] Fluorescence anisotropy was measured as described above. The percentage of bound inhibitor was calculated using the following equation
where N is the average anisotropy of the DMSO controls, X is the anisotropy value obtained for each well, and P is the average anisotropy of the unbound probe. The ICsos were determined by plotting the percent of bound inhibitor against the logarithm of the corresponding macrocycle concentration, and the curves were fitted in GraphPad Prism 6 as described above.

Experiment [4] has as its target T1, thrombin. In words: Thrombin inhibition screen of the 96-member disulfide-cyclized peptide library and Ki of purified hit (Example 2). Type of experiment: biochemical. The method, then: FIG. 7. Library design, peptide recovery quantification by absorption, and thrombin inhibition of the cyclic peptide library. (a) Design of library comprising 96 different peptides and structures of unnatural amino acids used in library. (b) Scatter plot of cyclic peptide concentrations (mM in DMSO) for the 96 synthesized cyclic peptides quantified by absorption at 280 nm. […] (c) Thrombin inhibition measured at an average cyclic peptide concentration of 11 μM. The peptides are ordered according to their thrombin inhibition activity in the first screen (black dots; highest to lowest activity). Green dots indicate thrombin inhibition for the same cyclic peptides measured in a second screen using the same conditions.
Despite the relatively small number of only 96 cyclic peptides and thus small chance of finding an active compounds, we performed a screen against thrombin, an important target for developing anticoagulation therapeutics, using a compound concentration of around 10 μM. […] Biological screens are typically performed at compound concentrations of around 10 μM, which means that the 100% DMSO and 150 mM DIPEA in the around 10 mM peptide stocks get 1000-fold diluted to reach concentrations of 0.1% and 150 μM, respectively, that unlikely affect most biological assays.

Experiment [5] has as its target T2, MDM2. Nature of the experiment: Competition binding experiment of fluorescein-labeled M10 with nutlin-3a on MDM2. The following applies: fluorescence polarization. The method, then: We subsequently performed a third cycle of library synthesis and screening, where we acylated the nine most promising scaffolds of the previous screens with 15 additional carboxylic acids, which were mostly cinnamic acid derivatives with larger substituents. We subsequently identified M10, which is a macrocycle based on the original scaffold and acylated with acid 120 that displaced the fluorescent probe used, F-M8, to 84% from MDM2 at 750 nM, and more efficiently than the parent compounds, M8 and M9 (FIG. 18c). […] With the fluorescein conjugate, we also performed a competition experiment with nutlin-3a that binds to a defined hydrophobic pocked of MDM2 (B. Anil et al., Acta Crystallogr. Sect. D Biol. Crystallogr. 2013, 69, 1358-1366) and is a precursor of nutlin-based clinical candidates.

T2 sequence (Q00987 whole entry): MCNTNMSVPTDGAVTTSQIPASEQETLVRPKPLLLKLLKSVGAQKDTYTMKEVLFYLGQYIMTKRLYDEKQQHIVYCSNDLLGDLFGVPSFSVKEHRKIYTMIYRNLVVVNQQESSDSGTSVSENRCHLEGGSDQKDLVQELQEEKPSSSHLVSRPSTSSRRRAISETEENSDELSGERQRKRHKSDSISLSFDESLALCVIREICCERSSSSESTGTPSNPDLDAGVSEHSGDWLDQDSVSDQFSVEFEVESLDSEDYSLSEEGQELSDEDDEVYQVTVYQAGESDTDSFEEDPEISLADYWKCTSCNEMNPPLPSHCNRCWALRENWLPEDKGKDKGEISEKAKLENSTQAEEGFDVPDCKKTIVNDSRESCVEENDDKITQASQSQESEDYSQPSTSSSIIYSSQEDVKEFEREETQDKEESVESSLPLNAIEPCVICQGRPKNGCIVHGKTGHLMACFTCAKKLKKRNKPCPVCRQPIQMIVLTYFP

For `Cc1cc(=O)oc2cc(NC(=O)[C@H](CCCNC(=N)N)NC(=O)CNC(=O)CNC(=O)OCc3ccccc3)ccc12` [Cbz-G-G-R-AMC], the Michaelis-Menten constant (Km) on thrombin [1] was found to be 305 ± 46 µM.

For the compound `O=C(NC[C@@H]1NC(=O)[C@H]2CCCN(C2)C(=O)CCSSCCNC(=O)[C@H](Cc2c[nH]c3ccccc23)NC1=O)c1ccc(Cl)s1` [M6], the dissociation constant (Kd) at MDM2 [2] was 0.6 ± 0.3 µM. Moreover, the IC50 at MDM2 [3] was around 1 µM.

`O=C(NC[C@@H]1NC(=O)[C@H]2CCCN(C2)C(=O)CCSSCCNC(=O)[C@H](Cc2c[nH]c3ccccc23)NC1=O)c1ccc(Cl)cc1` [M7]: the Kd on MDM2 [2] was 0.55 ± 0.19 µM. Besides, on MDM2 [3], the half-inhibitory concentration (IC50) was around 1 µM.

`O=C(/C=C/c1ccccc1)NC[C@@H]1NC(=O)[C@H]2CCCN(C2)C(=O)CCSSCCNC(=O)[C@H](Cc2c[nH]c3ccccc23)NC1=O` [M8] showed a Kd on MDM2 [2] of 0.169 ± 0.093 µM. Also, the IC50 on MDM2 [3] is around 1 µM.

Consider Mpa-Tyr-II-Pro-Mea, for which the Ki on thrombin [4] (HPLC-purified disulfide cyclized peptide) was determined as 13 ± 1 µM. At thrombin [4] (crude cyclic peptide, compound concentration of around 10 μM), the “reduction of thrombin activity” value was 52%.

In the case of nutlin-3a, on MDM2 [5], the “competition with fluorescein conjugate of M10 for MDM2” value is listed as “did not compete”.

The Km is the substrate concentration at which the rate is half of its maximum. Broadly, the Kd is the equilibrium constant for the complex coming apart. Low values mean tighter binding, high ones weaker binding. For orientation: IC50 means the concentration that inhibits the measured activity by half. The Ki is a dissociation constant, usually derived from enzyme kinetics or from competition with a known ligand. High values mean weaker binding, low ones tighter binding.

These data come from US20240279845A1, “METHOD FOR PREPARING A LIBRARY OF PEPTIDES OR A PEPTIDE” (ECOLE POLYTECHNIQUE FEDERALE DE LAUSANNE (EPFL), priority 2021, published 2024).
